ChEMBL document CHEMBL6083277, “Discovery of SZJK-0421: A Novel Potent, Low Toxicity, Selective Second Generation of CRM1 Inhibitor for the Treatment of Both Hematological and Solid Tumors” (J Med Chem, 2024)
Active and inactive are the calls of the source. No cut-off for these calls is given here.

How the values were obtained:
[1] = Toxicity in NOD-SCID mouse assessed as appearance of large nucleus in tumor at 60 mg/kg, po measured every 2 days for 21 days by H and E staining based analysis; format: organism-based; conditions: in vivo, 504 h, time 21 day
[2] = Cmax in male Sprague-Dawley rat at 10 mg/kg, po measured upto 30 hrs by LC-MS/MS analysis; format: ADME, organism-based; conditions: in vivo
MM1.S [3] = assay: Induction of apoptosis in human MM1.S cells assessed as increase in cleaved caspase level at 0.5 to 1 uM incubated for 48 hrs by Western blot analysis; format: functional, cell-based; conditions: dose 0.5-1 µM
[4] = target: T1, Ran-specific GTPase-activating protein (Homo sapiens, UniProt P43487); assay: Inhibition of RANBP1 nuclear export in human U2OS cells assessed as increase in fluorescence intensity measured for 15 mins by DAPI staining based fluorescence microscopic analysis; format: cell-based
[5] = Toxicity in NOD-SCID mouse assessed as shortening of villi in intestine at 15 to 60 mg/kg, po measured every 2 days for 21 days by H and E staining based analysis; format: organism-based; conditions: in vivo, 504 h, dose 15-60 mg/kg, time 21 day
MV4-11 = assay: Antiproliferative activity against human MV4-11 cells assessed as inhibition of cell growth incubated for 72 hrs by celltiter-glo assay; format: functional, cell-based; conditions: MV4-11, 72 h
ARH-77 = assay: Antitumor activity against human ARH-77 cells xenografted in NOD-SCID mouse at 15 to 60 mg/kg, po measured every 2 days for 21 days; format: functional, organism-based; conditions: dose 15-60 mg/kg, time 21.0 day
[6] = target: Voltage-gated inwardly rectifying potassium channel KCNH2 (Homo sapiens, UniProt Q12809); assay: Inhibition of hERG in HEK293 cells; format: toxicity, cell-based
[7] = Tmax in male Sprague-Dawley rat at 15 mg/kg, po measured upto 30 hrs by LC-MS/MS analysis; format: ADME, organism-based; conditions: in vivo
[8] = Toxicity in Sprague-Dawley rat at 30 mg/kg, po measured upto 48 hrs; format: organism-based; conditions: in vivo
KMS-11 = assay: Antiproliferative activity against human KMS-11 cells assessed as inhibition of cell growth incubated for 72 hrs by celltiter-glo assay; format: functional, cell-based; conditions: KMS-11, 72 h
LAMA-84 = assay: Antiproliferative activity against human LAMA-84 cells assessed as inhibition of cell growth incubated for 72 hrs by celltiter-glo assay; format: functional, cell-based; conditions: LAMA-84, 72 h
[9] = AUC (0 to infinity) in male Sprague-Dawley rat at 15 mg/kg, po measured upto 30 hrs by LC-MS/MS analysis; format: ADME, organism-based; conditions: in vivo
MM1.S [10] = assay: Antitumor activity against human MM1.S cells xenografted in NOD-SCID mouse assessed as tumor growth inhibition at 60 mg/kg, po qd measured upto 21 days; format: functional; conditions: 504 h, time <= 21 day, read-out: TGI
[11] = Tmax in male Sprague-Dawley rat at 10 mg/kg, po measured upto 30 hrs by LC-MS/MS analysis; format: ADME, organism-based; conditions: in vivo
[12] = Oral bioavailability in male Sprague-Dawley rat at 30 mg/kg measured upto 30 hrs by LC-MS/MS analysis; format: ADME, organism-based; conditions: in vivo
[13] = AUC in male Sprague-Dawley rat brain at 10 mg/kg, IG measured at 6 hrs by LC-MS/MS analysis; format: ADME, organism-based; conditions: po
[14] = Half life in male Sprague-Dawley rat at 30 mg/kg, po measured upto 30 hrs by LC-MS/MS analysis; format: ADME, organism-based; conditions: in vivo
[15] = AUC (0 to t) in male Sprague-Dawley rat at 30 mg/kg, po measured upto 30 hrs by LC-MS/MS analysis; format: ADME, organism-based; conditions: in vivo
[16] = Metabolic stability in human liver microsomes assessed as half life measured upto 60 mins in presence of NADPH by LC/MS-MS analysis; format: ADME, Microsome
MM1.S [17] = assay: Induction of apoptosis in human MM1.S cells assessed as increase in FOXO3A signal intensity; format: functional, cell-based
[18] = Metabolic stability in monkey liver microsomes assessed as half life measured upto 60 mins in presence of NADPH by LC/MS-MS analysis; format: ADME, Macaca mulatta, Microsome; conditions: rhesus monkey
[19] = Cmax in male Sprague-Dawley rat at 30 mg/kg, po measured upto 30 hrs by LC-MS/MS analysis; format: ADME, organism-based; conditions: in vivo
[20] = Metabolic stability in monkey liver microsomes assessed as intrinsic clearance measured upto 60 mins in presence of NADPH by LC/MS-MS analysis; format: ADME, Macaca mulatta, Microsome; conditions: rhesus monkey, read-out: CLH
[21] = target: Exportin-1 (Homo sapiens) (UniProt O14980); assay: Competitive inhibition of human recombinant CRM1 at 2 uM incubated for 2 hrs in presence of 3-(1-((E)-3-(methoxyamino)-3-oxo-2-(pyrimidin-5-yl)prop-1-en-1-yl)-1H-1,2,4-triazol-3-yl)-5-(trifluoromethyl)phenyl 3-(5-((3aS,4S,6aR)-2-oxohexahydro-1H-thieno[3,4-d]imidazol-4-yl)pentanamido)propanoate by pull down based Western blot analysis
[22] = Toxicity in NOD-SCID mouse assessed as decrease in villus height to crypt depth ratio at 15 to 60 mg/kg, po measured every 2 days for 21 days by H and E staining based analysis; format: organism-based; conditions: in vivo, 504 h, dose 15-60 mg/kg, time 21 day
[23] = target: Exportin-1 (Homo sapiens) (UniProt O14980); assay: Inhibition of CRM1 in human MM1.S cells assessed as accumulation of IkappaB protein level at 0.5 to 1 uM incubated for 24 hrs by Western blot analysis; format: cell-based; conditions: dose 0.5-1 µM
[24] = Cmax in male Sprague-Dawley rat at 15 mg/kg, po measured upto 30 hrs by LC-MS/MS analysis; format: ADME, organism-based; conditions: in vivo
[25] = Toxicity in NOD-SCID mouse assessed as loss of crypt depth in intestine at 15 to 60 mg/kg, po measured every 2 days for 21 days by H and E staining based analysis; format: organism-based; conditions: in vivo, 504 h, dose 15-60 mg/kg, time 21 day
[26] = Toxicity in BALB/c mouse assessed as weight loss at 60 mg/kg, po administered once daily for 21 days; format: organism-based; conditions: in vivo, 504 h, time 21 day
[27] = target: T1, Ran-specific GTPase-activating protein; assay: Inhibition of RANBP1 nuclear export in human U2OS cells assessed as increase in fluorescence intensity at 100 uM measured for 15 mins by DAPI staining based fluorescence microscopic analysis; format: cell-based
[28] = Metabolic stability in dog liver microsomes assessed as half life measured upto 60 mins in presence of NADPH by LC/MS-MS analysis; format: ADME, Canis lupus familiaris, Microsome
LoVo = assay: Antiproliferative activity against human LoVo cells assessed as inhibition of cell growth incubated for 72 hrs by celltiter-glo assay; format: functional, cell-based
[29] = AUC in male Sprague-Dawley rat plasma at 10 mg/kg, IG measured at 6 hrs by LC-MS/MS analysis; format: ADME, organism-based; conditions: po
[30] = Half life in male Sprague-Dawley rat at 2 mg/kg, iv measured upto 30 hrs by LC-MS/MS analysis; format: ADME, organism-based; conditions: in vivo
[31] = Tmax in male Sprague-Dawley rat at 30 mg/kg, po measured upto 30 hrs by LC-MS/MS analysis; format: ADME, organism-based; conditions: in vivo
MM1.S [32] = assay: Antitumor activity against human MM1.S cells xenografted in NOD-SCID mouse assessed as tumor growth inhibition at 30 mg/kg, po qd measured upto 21 days; format: functional; conditions: 504 h, time <= 21 day, read-out: TGI
SW872 = assay: Antiproliferative activity against human SW872 cells assessed as inhibition of cell growth incubated for 72 hrs by celltiter-glo assay; format: functional, cell-based; conditions: SW872, 72 h
[33] = Toxicity in NOD-SCID mouse assessed as reduction in intact nuclei in tumor at 60 mg/kg, po measured every 2 days for 21 days by H and E staining based analysis; format: organism-based; conditions: in vivo, 504 h, time 21 day
[34] = Antiproliferative activity against human ARP-1 cells assessed as inhibition of cell growth incubated for 72 hrs by celltiter-glo assay; format: functional, cell-based; conditions: ARP-1, 72 h

T1 sequence (P43487 whole entry): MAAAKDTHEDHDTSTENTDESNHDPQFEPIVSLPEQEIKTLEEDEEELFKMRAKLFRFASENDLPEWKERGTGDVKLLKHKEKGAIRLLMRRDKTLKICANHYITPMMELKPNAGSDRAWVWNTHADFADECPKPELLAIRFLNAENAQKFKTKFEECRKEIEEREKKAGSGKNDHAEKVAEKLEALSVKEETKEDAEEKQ
Chain of Exportin-1 (Homo sapiens) (O14980 whole entry): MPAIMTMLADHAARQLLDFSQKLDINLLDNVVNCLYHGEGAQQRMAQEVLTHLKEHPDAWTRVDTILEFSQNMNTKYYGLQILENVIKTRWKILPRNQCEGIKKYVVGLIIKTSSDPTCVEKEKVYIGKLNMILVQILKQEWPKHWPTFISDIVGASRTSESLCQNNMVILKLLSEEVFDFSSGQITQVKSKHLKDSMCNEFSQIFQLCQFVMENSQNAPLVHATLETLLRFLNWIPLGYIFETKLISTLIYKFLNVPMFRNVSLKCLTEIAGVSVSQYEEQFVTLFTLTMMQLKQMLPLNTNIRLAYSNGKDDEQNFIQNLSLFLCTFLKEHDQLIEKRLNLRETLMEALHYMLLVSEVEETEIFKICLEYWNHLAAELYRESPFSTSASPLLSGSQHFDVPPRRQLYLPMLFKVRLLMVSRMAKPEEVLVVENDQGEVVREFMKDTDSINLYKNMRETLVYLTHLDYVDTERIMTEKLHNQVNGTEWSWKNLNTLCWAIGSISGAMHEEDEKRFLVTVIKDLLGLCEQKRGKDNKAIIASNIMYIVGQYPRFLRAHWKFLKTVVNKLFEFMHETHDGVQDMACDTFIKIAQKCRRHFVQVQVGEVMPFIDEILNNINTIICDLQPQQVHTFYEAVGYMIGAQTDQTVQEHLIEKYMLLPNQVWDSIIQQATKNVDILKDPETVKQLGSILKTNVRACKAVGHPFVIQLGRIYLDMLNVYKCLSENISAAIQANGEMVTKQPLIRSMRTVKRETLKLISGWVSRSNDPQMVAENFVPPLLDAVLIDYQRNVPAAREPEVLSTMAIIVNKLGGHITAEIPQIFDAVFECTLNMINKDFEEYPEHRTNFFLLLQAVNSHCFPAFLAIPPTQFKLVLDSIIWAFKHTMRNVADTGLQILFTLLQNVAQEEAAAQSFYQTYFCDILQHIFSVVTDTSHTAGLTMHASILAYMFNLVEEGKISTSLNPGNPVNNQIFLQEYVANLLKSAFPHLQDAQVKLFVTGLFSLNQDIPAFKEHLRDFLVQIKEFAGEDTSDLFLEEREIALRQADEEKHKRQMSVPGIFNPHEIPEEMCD
Chain of Voltage-gated inwardly rectifying potassium channel KCNH2 (Q12809 whole entry): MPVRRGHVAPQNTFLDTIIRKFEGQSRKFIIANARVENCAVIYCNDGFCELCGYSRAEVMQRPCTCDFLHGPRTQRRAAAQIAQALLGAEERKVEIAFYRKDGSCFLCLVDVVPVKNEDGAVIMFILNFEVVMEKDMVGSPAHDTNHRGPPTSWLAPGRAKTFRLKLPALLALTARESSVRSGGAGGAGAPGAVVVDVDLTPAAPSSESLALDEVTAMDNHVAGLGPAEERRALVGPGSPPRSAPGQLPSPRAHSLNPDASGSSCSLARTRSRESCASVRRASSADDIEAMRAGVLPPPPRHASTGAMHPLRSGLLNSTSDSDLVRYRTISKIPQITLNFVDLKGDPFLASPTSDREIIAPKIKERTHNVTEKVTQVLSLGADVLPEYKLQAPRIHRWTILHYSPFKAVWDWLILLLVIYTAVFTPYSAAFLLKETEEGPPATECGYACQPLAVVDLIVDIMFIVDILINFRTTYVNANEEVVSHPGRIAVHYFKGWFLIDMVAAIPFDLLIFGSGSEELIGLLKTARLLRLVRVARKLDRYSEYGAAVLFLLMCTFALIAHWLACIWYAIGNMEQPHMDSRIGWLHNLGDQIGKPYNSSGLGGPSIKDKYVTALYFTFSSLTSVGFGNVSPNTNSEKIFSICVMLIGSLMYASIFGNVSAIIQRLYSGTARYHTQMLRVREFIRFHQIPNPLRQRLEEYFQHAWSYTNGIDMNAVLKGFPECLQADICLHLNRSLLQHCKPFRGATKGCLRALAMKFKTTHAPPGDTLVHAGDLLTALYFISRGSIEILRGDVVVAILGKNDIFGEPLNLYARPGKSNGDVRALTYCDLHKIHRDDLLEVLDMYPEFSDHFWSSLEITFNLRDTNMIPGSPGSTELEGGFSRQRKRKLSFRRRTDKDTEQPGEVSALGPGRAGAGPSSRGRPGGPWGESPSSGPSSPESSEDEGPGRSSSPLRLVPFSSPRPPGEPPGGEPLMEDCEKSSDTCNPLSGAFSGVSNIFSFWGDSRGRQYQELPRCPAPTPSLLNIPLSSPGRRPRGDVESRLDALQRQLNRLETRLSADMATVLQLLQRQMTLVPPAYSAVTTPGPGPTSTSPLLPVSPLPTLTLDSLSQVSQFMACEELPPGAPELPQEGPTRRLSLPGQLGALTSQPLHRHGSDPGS

CONC(=O)/C(=C/n1cnc(-c2cc(C(F)(F)F)cc(C(F)(F)F)c2)n1)c1cncnc1
Activity [1]: Non-toxic
Cmax [2]: 899 ng/mL
Activity (MM1.S [3]): Active
IC50 [4]: 620 nM
Activity [5]: Non-toxic
IC50 (MV4-11): 43.5 nM
Activity (ARH-77): Active
IC50 [6]: 18900 nM
Tmax [7]: 0.25 h
Activity [8]: Non-toxic
IC50 (KMS-11): 739 nM
IC50 (LAMA-84): 1480 nM
AUC(0-inf) [9]: 5830 ng·h/mL
inhibition in vivo at 60 mg/kg (MM1.S [10]): 87%
Tmax [11]: 0.3 h
bioavailability [12]: 46.3%
AUC at 6 h [13]: 378 ng·h/mL
half-life [14]: 3.6 h
AUC(0-t) at 30 h [15]: 9000 ng·h/mL
half-life [16]: > 2 h
Activity (MM1.S [17]): Active
half-life [18]: > 2 h
Cmax [19]: 844 ng/mL
microsomal CLint [20]: 8.6 µL/min/mg
inhibition [21]: Active
Activity [22]: Non-toxic
Activity [23]: Active
Cmax [24]: 793 ng/mL
Activity [25]: Non-toxic
Activity [26]: Non-toxic
inhibition [27]: Active
half-life [28]: > 2 h
IC50 (LoVo): 2040 nM
AUC at 6 h [29]: 2480 ng·h/mL
half-life [30]: 4.2 h
Tmax [31]: 0.3 h
inhibition in vivo at 30 mg/kg (MM1.S [32]): 86.6%
IC50 (SW872): 753 nM
Activity [33]: Non-toxic
IC50 [34]: 652 nM
